Results reported in patent publication US20050069498A1, “Method for identifying metabotropic glutamate receptor agonists and potentiators” (priority 2003, published 2005).

Tested on: VHipp norepinephrine (NE) release
Experiment: Ketamine challenge: norepinephrine release in ventral hippocampus by in vivo microdialysis
Conditions: three ketamine doses vs vehicle control, 20 min intervals over 120 min, time course and AUC (FIG. 2, 3)

## CNC1(c2ccccc2Cl)CCCCC1=O (centres unmarked) [Ketamine]
  VHipp norepinephrine (NE) release after ketamine challenge: dose dependent increase
Listed as ketamine
  VHipp norepinephrine (NE) release after ketamine challenge: greater area under the curve
